# Results taken from paper PMC4356641 (European journal of oral sciences, 2015).
# Values joined by “and” are separate entries in the source; they are usually repeats but may differ in a detail not shown here. Equal entries are not always repeated.
# Tests used:
# [1] = system: demineralized dentin collagen; conditions: cited from earlier work
# [2] = system: soluble MMP-9; conditions: cited from earlier work
# [3] = system: MMP-2; conditions: cited from earlier work
# [4] = system: MMP-8; conditions: cited from earlier work
# [5] = system: MMP-9; conditions: cited from earlier work
# [6] = system: total endogenous MMP activity of dentin (matrix-bound MMPs); type: biochemical, human; conditions: 1.0% w/v aqueous BAC applied for 60 s; relative to untreated control with 0% inhibition; mean (SD), n = 10
# [7] = system: MMP; conditions: cited from earlier work
compound,measurement,setting,value
"C=C(C)C(=O)OCCCCCCCCCCCC[n+]1ccccc1.[Br-] [MDPB, 12-methacryloyloxydodecylpyridinium bromide]",Inhibition of degradation of demineralized dentin collagen,[1],almost completely inhibited
same,Inhibition of soluble MMP-9,[2],effectively inhibited soluble MMP-9 as or more effectively as Galardin
"[H]/N=C(\N/C(=N/[H])NCCCCCCNC(=N)NC(=N)Nc1ccc(Cl)cc1)Nc1ccc(Cl)cc1 [CHX, Chlorhexidine]",Inhibition of MMP-2,[3],potent inhibitor
same,Inhibition of MMP-8,[4],potent inhibitor
same,Inhibition of MMP-9,[5],potent inhibitor
Benzalkonium chloride [BAC],% MMP inhibition (total MMP activity),[6],54% and 54.2 (9.0) ^C %
same,MMP inhibition,[7]; 1.0% BAC,55–66%
same,MMP inhibition relative to 1.0% BAC,[7]; 2.0% BAC,did not yield additional MMP inhibition
